Key:
[1] = molecular target: BCRP (Homo sapiens (Human), UniProt Q9UNQ0); assay: In vitro human transporter efflux, MDCKII cells expressing BCRP; assay type: in vitro ADME; conditions: 10 μM, 2-hour incubation; for Papp A→B at 2 h, 10 μM: pH 7.4, apical-to-basolateral, pH7.4, read-out: BCRP Papp AB; for Papp B→A at 2 h, 10 μM: pH 7.4, basolateral-to-apical, pH7.4, read-out: BCRP Papp BA
Method: (§1) Madin-Darby canine kidney (MDCKII) cells expressing either MDR1 or BCRP were seeded onto Corning HTS Transwell® 96-well polycarbonate permeable (0.4 μm pore) supports at a density of 545,000 cells/cm^2. Cells were incubated for 4-8 days prior to assay, and monolayer integrity was assessed by measuring transepithelial electrical resistance (TEER). […] The final organic solvent concentration was 0.5% (v/v). Bidirectional (apical-to-basolateral and basolateral-to-apical) flux of the test and reference compounds was determined over a 2-hour incubation at 37° C. and 5% CO2 with a relative humidity of 95%. At the end of the incubation, samples from the apical and basolateral side were taken and then precipitated with acetonitrile containing internal standard. After centrifugation at 3200×g, supernatants were diluted 1:1 (v/v) with water and subjected to analysis via HPLC-MS/MS.
(§2) Apparent permeability (Papp, ×10^−6 cm/s) was calculated for all transport assays using the following equation: […]
(§3) Efflux ratio was determined by calculating the ratio of the Papp in the basolateral-to-apical direction to the Papp in the apical-to-basolateral direction using the following equation: […]

[2] = tested on: MDA-MB-436 (mutated BRCA1) cells; assay: Cell growth inhibition assay (CellTiter-Glo), MDA-MB-436; assay type: cell-based; conditions: Homo sapiens, MDA-MB-436, 168 h; cell viability, CellTiter Glo 2.0, 7 days
Description: The objective of this study is to evaluate the effect of compound disclosed herein on cell proliferation through the cell viability assay in DLD-1 BRCA2(−/−) and parental isogenic pair and MDA-MB-436 (mutated BRCA1) cell lines. The CellTiter-Glo (CTG) based cell viability assay is designed to determine the number of viable cells in the culture because of compound effect, by quantifying ATP, which indicates the presence of metabolically active cells.
(§4) DLD-1 BRCA2(−/−) and parental isogenic pair were cultured in RPMI 1640 supplemented with 10% fetal bovine serum (FBS), and MDA-MB-436 cells were cultured in DMEM supplemented with 10% FBS. Both are culture at 37° C. with 5% CO2. Invention compounds were distributed to the 384 well plate (Corning, 3764) using Echo acoustic liquid handler to form a 1:3 serially diluted final concentration with top dose of 10 or 30 μM. The cells were seeded into the plate in the density of 50 cells/well (DLD-1 parental), 200 cells/well (DLD-1 BRCA2−/−), or 500 cells/well (MDA-MB-436). After a short spun, the cells were cultured in a well moisturized incubator at 37° C. with 5% CO2 for 7 days without disturbance. The cell viability was measured by CellTiter Glo 2.0 assay kit (Promega, G9243), and growth inhibition rate was calculated and plotted against final compound concentration, and the data were fitted in Xfit to generate IC50.

[3] = tested on: DLD-1 BRCA2(−/−) cells; assay: Cell growth inhibition assay (CellTiter-Glo), DLD-1 BRCA2(−/−); assay type: cell-based; conditions: Homo sapiens, DLD-1, 168 h; cell viability, CellTiter Glo 2.0, 7 days
Method: The objective of this study is to evaluate the effect of compound disclosed herein on cell proliferation through the cell viability assay in DLD-1 BRCA2(−/−) and parental isogenic pair and MDA-MB-436 (mutated BRCA1) cell lines.
as §4, with “Invention compounds were distributed to the 384 well plate (Corning, 3764) using Echo acoustic liquid handler to form a 1:3 serially diluted final concentration with top dose of 10 or 30 μM.” left out

[4] = molecular target: MDR1 (Homo sapiens (Human), UniProt P08183); assay: In vitro human transporter efflux, MDCKII cells expressing MDR1; assay type: in vitro ADME; conditions: for Papp A→B at 2 h, 10 μM: MDCK-MDR1, pH 7.4, apical-to-basolateral, pH7.4, read-out: MDCK-MDR1 Papp AB; for Papp A→B at 2 h, 10 μM / Papp B→A at 2 h, 10 μM: 2-hour incubation; for Papp B→A at 2 h, 10 μM: MDCK-MDR1, pH 7.4, basolateral-to-apical, pH7.4, read-out: MDCK-MDR1 Papp BA; for efflux ratio at 2 h, 10 μM: MDCK-MDR1, pH 7.4, efflux ratio Papp BA/Papp AB
Method: as §1, §2, §3

[5] = molecular target: PARP1 (Homo sapiens (Human), UniProt P09874); assay: Biochemical fluorescence polarization (FP) assay, PARPi-FL displacement, PARP1; assay type: binding; conditions: 20 nM protein, 3 nM PARPi-FL, 4 h at room temperature
Method: (§5) To characterize our compounds, we utilized an assay measuring the displacement of a commercially available fluorescently labeled PARP 1/2 inhibitor (PARPi-FL, Tocris Biosciences, #6461) as exemplified in assays performed in WO2014/064149 and WO2021/013735A1. The assay was performed utilizing the following method: Compounds were dissolved in DMSO an Echo550 liquid handler was utilized to make serial dilations in the desired concentration range in Optiplate-384F plates. 100% DMSO was used for the high (with protein) and low (without protein) control samples. 20 nL of compound or DMSO alone was added to individual assay plate wells. […] The PARPi-FL was then added at a final concentration of 3 nM. The assay plate is centrifuged at 1000 rpm for 1 min and incubated for 4 h at room temperature. […] XLFit (equation 201) is used to calculate a reported IC50 for each compound.

[6] = molecular target: PARP2 (Homo sapiens (Human), UniProt Q9UGN5); assay: Biochemical fluorescence polarization (FP) assay, PARPi-FL displacement, PARP2; assay type: binding; conditions: 20 nM protein, 3 nM PARPi-FL, 4 h at room temperature
Method: as §5

Chain of BCRP (Q9UNQ0 whole entry): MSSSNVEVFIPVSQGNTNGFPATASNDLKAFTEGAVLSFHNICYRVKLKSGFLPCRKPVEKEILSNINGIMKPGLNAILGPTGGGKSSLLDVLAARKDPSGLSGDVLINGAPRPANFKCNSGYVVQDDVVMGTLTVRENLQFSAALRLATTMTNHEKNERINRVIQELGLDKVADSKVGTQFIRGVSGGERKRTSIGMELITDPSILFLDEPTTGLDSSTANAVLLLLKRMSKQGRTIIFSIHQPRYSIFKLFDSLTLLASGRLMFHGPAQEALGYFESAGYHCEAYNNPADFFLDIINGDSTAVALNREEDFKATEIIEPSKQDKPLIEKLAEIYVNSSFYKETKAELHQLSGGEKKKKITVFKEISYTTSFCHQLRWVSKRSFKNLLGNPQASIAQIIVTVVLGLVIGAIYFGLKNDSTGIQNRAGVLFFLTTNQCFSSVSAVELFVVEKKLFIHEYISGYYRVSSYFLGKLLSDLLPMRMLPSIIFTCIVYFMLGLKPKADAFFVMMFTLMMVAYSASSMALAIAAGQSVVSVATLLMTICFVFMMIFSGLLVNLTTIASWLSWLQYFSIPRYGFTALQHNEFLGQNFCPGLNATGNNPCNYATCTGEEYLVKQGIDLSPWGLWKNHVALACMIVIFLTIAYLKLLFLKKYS
Chain of PARP1 (P09874 whole entry): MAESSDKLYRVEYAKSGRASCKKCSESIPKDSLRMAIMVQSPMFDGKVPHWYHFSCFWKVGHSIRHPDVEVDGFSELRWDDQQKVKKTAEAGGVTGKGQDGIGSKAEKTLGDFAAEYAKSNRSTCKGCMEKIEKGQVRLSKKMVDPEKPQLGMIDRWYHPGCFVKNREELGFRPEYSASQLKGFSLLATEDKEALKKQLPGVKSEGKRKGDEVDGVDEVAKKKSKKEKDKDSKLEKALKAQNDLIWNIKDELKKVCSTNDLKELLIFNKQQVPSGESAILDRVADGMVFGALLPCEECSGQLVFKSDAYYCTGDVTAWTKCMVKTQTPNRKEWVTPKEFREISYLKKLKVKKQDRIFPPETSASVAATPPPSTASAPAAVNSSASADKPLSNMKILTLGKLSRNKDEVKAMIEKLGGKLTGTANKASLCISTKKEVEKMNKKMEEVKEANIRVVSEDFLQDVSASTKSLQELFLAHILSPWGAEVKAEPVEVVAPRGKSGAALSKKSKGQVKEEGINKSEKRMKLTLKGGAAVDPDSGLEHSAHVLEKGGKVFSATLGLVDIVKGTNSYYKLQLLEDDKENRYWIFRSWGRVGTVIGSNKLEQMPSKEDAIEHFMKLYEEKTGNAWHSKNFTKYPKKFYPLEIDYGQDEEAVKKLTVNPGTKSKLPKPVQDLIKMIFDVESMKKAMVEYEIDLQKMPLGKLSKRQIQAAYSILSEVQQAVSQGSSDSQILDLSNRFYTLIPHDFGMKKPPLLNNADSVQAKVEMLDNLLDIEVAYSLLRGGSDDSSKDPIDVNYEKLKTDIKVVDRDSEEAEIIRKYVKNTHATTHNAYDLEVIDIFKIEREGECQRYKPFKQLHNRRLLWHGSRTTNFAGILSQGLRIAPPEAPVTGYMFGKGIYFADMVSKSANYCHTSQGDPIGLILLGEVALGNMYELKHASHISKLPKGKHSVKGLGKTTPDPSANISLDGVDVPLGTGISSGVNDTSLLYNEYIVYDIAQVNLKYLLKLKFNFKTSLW
Chain of MDR1 (P08183 whole entry): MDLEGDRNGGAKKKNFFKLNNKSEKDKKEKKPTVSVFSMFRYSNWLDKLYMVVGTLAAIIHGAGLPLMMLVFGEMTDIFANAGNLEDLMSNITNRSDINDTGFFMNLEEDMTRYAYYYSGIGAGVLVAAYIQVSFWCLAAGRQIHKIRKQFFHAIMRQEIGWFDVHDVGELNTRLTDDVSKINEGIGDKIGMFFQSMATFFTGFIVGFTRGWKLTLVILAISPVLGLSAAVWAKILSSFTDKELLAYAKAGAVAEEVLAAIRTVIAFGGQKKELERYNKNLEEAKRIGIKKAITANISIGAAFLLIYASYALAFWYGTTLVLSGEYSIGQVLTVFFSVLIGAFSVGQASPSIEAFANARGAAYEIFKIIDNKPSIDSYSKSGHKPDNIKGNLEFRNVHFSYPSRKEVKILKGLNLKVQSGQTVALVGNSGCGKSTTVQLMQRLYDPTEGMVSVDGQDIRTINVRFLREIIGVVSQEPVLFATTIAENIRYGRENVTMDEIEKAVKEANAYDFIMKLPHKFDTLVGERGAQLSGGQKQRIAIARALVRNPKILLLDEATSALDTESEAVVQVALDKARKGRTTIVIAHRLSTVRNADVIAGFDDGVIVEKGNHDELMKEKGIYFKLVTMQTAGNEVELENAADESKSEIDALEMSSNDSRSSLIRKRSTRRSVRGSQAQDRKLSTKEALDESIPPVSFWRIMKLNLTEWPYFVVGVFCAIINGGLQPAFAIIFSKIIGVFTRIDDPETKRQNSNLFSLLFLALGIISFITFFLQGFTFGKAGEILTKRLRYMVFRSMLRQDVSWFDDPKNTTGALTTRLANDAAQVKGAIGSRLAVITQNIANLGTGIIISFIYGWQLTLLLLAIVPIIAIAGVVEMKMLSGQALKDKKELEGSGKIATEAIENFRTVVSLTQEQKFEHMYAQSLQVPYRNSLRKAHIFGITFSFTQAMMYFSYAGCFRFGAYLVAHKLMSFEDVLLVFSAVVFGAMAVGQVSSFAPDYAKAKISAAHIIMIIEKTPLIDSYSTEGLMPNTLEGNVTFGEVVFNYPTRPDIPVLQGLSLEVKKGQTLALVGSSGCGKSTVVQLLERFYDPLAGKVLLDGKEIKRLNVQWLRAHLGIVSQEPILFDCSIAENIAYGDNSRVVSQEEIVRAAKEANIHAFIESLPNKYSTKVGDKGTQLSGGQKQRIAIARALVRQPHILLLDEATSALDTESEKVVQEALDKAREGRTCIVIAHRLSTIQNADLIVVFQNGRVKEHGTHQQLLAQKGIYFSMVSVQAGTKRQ
Chain of PARP2 (Q9UGN5 whole entry): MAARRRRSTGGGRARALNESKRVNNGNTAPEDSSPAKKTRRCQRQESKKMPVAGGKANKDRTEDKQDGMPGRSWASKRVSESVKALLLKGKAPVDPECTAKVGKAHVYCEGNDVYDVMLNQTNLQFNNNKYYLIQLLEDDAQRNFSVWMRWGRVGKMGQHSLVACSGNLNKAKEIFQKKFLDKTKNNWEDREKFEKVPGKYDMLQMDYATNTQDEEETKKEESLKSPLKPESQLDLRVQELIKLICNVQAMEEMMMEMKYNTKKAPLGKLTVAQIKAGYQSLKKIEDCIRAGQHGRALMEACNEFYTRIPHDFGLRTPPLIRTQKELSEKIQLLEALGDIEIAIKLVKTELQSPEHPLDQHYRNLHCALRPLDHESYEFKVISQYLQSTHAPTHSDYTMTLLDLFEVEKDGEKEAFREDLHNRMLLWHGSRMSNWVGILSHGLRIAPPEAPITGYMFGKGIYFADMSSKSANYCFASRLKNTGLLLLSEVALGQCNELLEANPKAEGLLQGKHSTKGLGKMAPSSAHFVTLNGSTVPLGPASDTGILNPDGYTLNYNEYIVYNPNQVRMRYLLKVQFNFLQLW

Row | SMILES | Papp A→B at 2 h, 10 μM [1] [×10⁻⁶ cm/s] | Papp B→A at 2 h, 10 μM [1] [×10⁻⁶ cm/s] | EC50 [2] [nM] | EC50 [3] [nM] | Papp A→B at 2 h, 10 μM [4] [×10⁻⁶ cm/s] | Papp B→A at 2 h, 10 μM [4] [×10⁻⁶ cm/s] | IC50 [5] [nM] | IC50 [6] [nM] | efflux ratio at 2 h, 10 μM [4]
1 | [2H]C([2H])(c1ccc2c3c(c(=O)[nH]c2c1F)CCO3)N1CCN(c2ccc(C(=O)NC)nc2F)CC1 (single isomer, unassigned) [Example 24] | 22.9 | 24.4 | 3 | 3.8 | 16.3 | 32.9 |  |  | 
2 | [2H]C([2H])([2H])NC(=O)c1ccc(N2CCN(Cc3ccc4c([nH]c(=O)c5c(F)cnn54)c3F)CC2)c(F)n1 (single isomer, unassigned) [Example 33] |  |  | 0.79 | 0.96 |  |  | 11 | > 100000 | 
3 | [2H]C([2H])(c1ccc2c([nH]c(=O)c3c(F)cnn32)c1F)N1CCN(c2ccc(C(=O)NC)nc2F)CC1 (single isomer, unassigned) [Example 34] |  |  | 1.1 | 0.99 |  |  | 40 | > 100000 | 
4 | Cc1cc2c(=O)[nH]c3c(F)c(CN4CCN(c5ccc(C(=O)NC6CC6)nc5F)CC4)ccc3n2n1 [Example 4] |  |  | 1.2 | 2.1 | 4.4 | 8.6 |  |  | 1.96
5 | Cc1cc2c(=O)[nH]c3c(F)c(CN4CCN(c5ccc(C(=O)NC6COC6)nc5F)CC4)ccc3n2n1 [Example 21] |  |  | 0.66 | 1.3 |  |  |  |  | 
6 | CNC(=O)c1ccc(N2CCN(Cc3ccc4c5c(c(=O)[nH]c4c3F)CCO5)CC2)cn1 [Example 26] |  |  | 6 | 7.5 |  |  |  |  | 
7 | CNC(=O)c1nc(C)c(N2CCN(Cc3ccc4c5c(c(=O)[nH]c4c3F)CCO5)CC2)cc1F [Example 27] |  |  | 14 | 21 |  |  |  |  | 
8 | CNC(=O)c1ccc(N2CCN(Cc3ccc4c5c(c(=O)[nH]c4c3F)CCO5)CC2)c(C)n1 [Example 29] |  |  | 2.1 | 4.3 |  |  |  |  | 

Continued, values first:

Row | Papp A→B at 2 h, 10 μM [1] [×10⁻⁶ cm/s] | Papp B→A at 2 h, 10 μM [1] [×10⁻⁶ cm/s] | EC50 [2] [nM] | EC50 [3] [nM] | Papp A→B at 2 h, 10 μM [4] [×10⁻⁶ cm/s] | Papp B→A at 2 h, 10 μM [4] [×10⁻⁶ cm/s] | IC50 [5] [nM] | IC50 [6] [nM] | efflux ratio at 2 h, 10 μM [4] | SMILES
9 | 28.2 | 23.6 | 4.9 | 6.6 | 15.1 | 23.3 |  |  |  | [2H]C([2H])([2H])NC(=O)c1ccc(N2CCN(Cc3ccc4c5c(c(=O)[nH]c4c3F)CCO5)CC2)c(F)n1 (single isomer, unassigned) [Example 22]
10 |  |  | 1.1 | 1 | 16.3 | 20.6 |  |  |  | CNC(=O)c1ccc(N2CCN(Cc3ccc4c5c(c(=O)[nH]c4c3F)CCC5)CC2)c(F)n1 [Comp. Ex. 4, reference compound]
11 |  |  | 2.9 | 4.2 | 10.3 | 21.2 |  |  | 2.06 | CNC(=O)c1ccc(N2CCN(Cc3ccc4c([nH]c(=O)c5cc(C)nn54)c3F)CC2)c(F)n1 [Example 5]
12 |  |  | 4 | 6.2 |  |  |  |  |  | CNC(=O)c1ccc(N2CCN(Cc3ccc4c([nH]c(=O)c5cn(C)nc54)c3F)CC2)c(F)n1 [Example 20, 6-fluoro-5-[4-({6-fluoro-2-methyl-4-oxo-5H-pyrazolo[4,3-c]quinolin-7-yl}methyl)piperazin-1-yl]-N-methylpyridine-2-carboxamide]
13 |  |  | 2.7 | 4.7 |  |  |  |  |  | CNC(=O)c1ccc(N2CCN(Cc3ccc4c([nH]c(=O)c5c(C)cnn54)c3F)CC2)c(F)n1 [Example 23]
14 |  |  | 1.4 | 1.8 |  |  |  |  |  | CNC(=O)c1ccc(N2CCN(Cc3ccc4c([nH]c(=O)c5cc(F)nn54)c3F)CC2)c(F)n1 [Example 25, 5-[4-({2,6-difluoro-4-oxo-5H-pyrazolo[1,5-a]quinoxalin-7-yl}methyl)piperazin-1-yl]-6-fluoro-N-methylpyridine-2-carboxamide]
15 |  |  | 0.57 | 0.84 |  |  |  |  |  | CNC(=O)c1ccc(N2CCN(Cc3ccc4c([nH]c(=O)c5c(F)cnn54)c3F)CC2)c(F)n1 [Example 28, 5-[4-({3,6-difluoro-4-oxo-5H-pyrazolo[1,5-a]quinoxalin-7-yl}methyl)piperazin-1-yl]-6-fluoro-N-methylpyridine-2-carboxamide]
16 |  |  | 4.6 | 6.5 |  |  | 56 | > 100000 |  | [2H]C([2H])([2H])NC(=O)c1ccc(N2CCN(Cc3ccc4c([nH]c(=O)c5ccoc54)c3F)CC2)c(F)n1 [Example 30]

— US11795173B1, “Substituted pyridines as PARP1 inhibitors” (Xinthera, Inc., priority 2022, dated 2023)
